Test results published in PubChem BioAssay AID1963871 (Molecular Pharmacology Branch, DTP, NCI, 2024).

System: KRAS-mutant PDC multicell tumor spheroid viability
Experiment: Anticancer human tumor 521955-158-R2-J5-PDC patient-derived pancreatic carcinoma cell line growth inhibition [KRAS2]
Details: for IC50: curve of first compound; for viability, T/C: stronger effect = lower value
Summary of the method: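 Combination screen of spheroid viability in tumor-cell co-cultures with endothelial (HUVEC) and mesenchymal stem cell stroma. Each agent was tested in half-log dilutions, topping at clinical Cmax or at 10 microM without a known Cmax.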

[1] = second compound 0.1 µM, first compound 0.0316 µM
[2] = second compound 0.1 µM, first compound 0.1 µM
[3] = second compound 0.1 µM, first compound 0.316 µM
[4] = second compound 0.1 µM, first compound 1 µM
[5] = second compound 0.1 µM, first compound 3.16 µM
[6] = second compound 0.1 µM, first compound 10 µM
[7] = second compound 0.316 µM, first compound 0.0316 µM
[8] = second compound 0.316 µM, first compound 0.1 µM
[9] = second compound 0.316 µM, first compound 0.316 µM
[10] = second compound 0.316 µM, first compound 1 µM
[11] = second compound 0.316 µM, first compound 3.16 µM
[12] = second compound 0.316 µM, first compound 10 µM
[13] = second compound 1 µM, first compound 0.0316 µM
[14] = second compound 1 µM, first compound 0.1 µM
[15] = second compound 1 µM, first compound 0.316 µM
[16] = second compound 1 µM, first compound 1 µM
[17] = second compound 1 µM, first compound 3.16 µM
[18] = second compound 1 µM, first compound 10 µM
[19] = second compound 3.16 µM, first compound 0.0316 µM
[20] = second compound 3.16 µM, first compound 0.1 µM
[21] = second compound 3.16 µM, first compound 0.316 µM
[22] = second compound 3.16 µM, first compound 1 µM
[23] = second compound 3.16 µM, first compound 3.16 µM
[24] = second compound 3.16 µM, first compound 10 µM
[25] = second compound 10 µM, first compound 0.0316 µM
[26] = second compound 10 µM, first compound 0.1 µM
[27] = second compound 10 µM, first compound 0.316 µM
[28] = second compound 10 µM, first compound 1 µM
[29] = second compound 10 µM, first compound 3.16 µM
[30] = second compound 10 µM, first compound 10 µM
[31] = second compound 0.1 µM, first compound 0.000316 µM
[32] = second compound 0.1 µM, first compound 0.001 µM
[33] = second compound 0.1 µM, first compound 0.00316 µM
[34] = second compound 0.1 µM, first compound 0.01 µM
[35] = second compound 0.316 µM, first compound 0.000316 µM
[36] = second compound 0.316 µM, first compound 0.001 µM
[37] = second compound 0.316 µM, first compound 0.00316 µM
[38] = second compound 0.316 µM, first compound 0.01 µM
[39] = second compound 1 µM, first compound 0.000316 µM
[40] = second compound 1 µM, first compound 0.001 µM
[41] = second compound 1 µM, first compound 0.00316 µM
[42] = second compound 1 µM, first compound 0.01 µM
[43] = second compound 3.16 µM, first compound 0.000316 µM
[44] = second compound 3.16 µM, first compound 0.001 µM
[45] = second compound 3.16 µM, first compound 0.00316 µM
[46] = second compound 3.16 µM, first compound 0.01 µM
[47] = second compound 10 µM, first compound 0.000316 µM
[48] = second compound 10 µM, first compound 0.001 µM
[49] = second compound 10 µM, first compound 0.00316 µM
[50] = second compound 10 µM, first compound 0.01 µM
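Further: viability read after seven days of drug exposure.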

SMILES | IC50 (second compound 0.1 µM) | IC50 (second compound 0.316 µM) | IC50 (second compound 1 µM) | IC50 (second compound 3.16 µM) | IC50 (second compound 10 µM) | viability, T/C [1] | viability, T/C [2] | viability, T/C [3] | viability, T/C [4] | viability, T/C [7] | viability, T/C [8] | viability, T/C [9] | viability, T/C [10] | viability, T/C [13] | viability, T/C [14] | viability, T/C [15] | viability, T/C [19] | viability, T/C [20] | viability, T/C [25] | viability, T/C [26] | further results
CC(C)NCC(C(=O)N1CCN(c2ncnc3c2C(C)CC3O)CC1)c1ccc(Cl)cc1 (stereo not given) + CNCc1ccccc1-c1csc(C(C)Nc2nc(C)nc3cc(OC)c(OC)cc23)c1 | > 10000 nM | > 10000 nM | 4280 nM | < 31.6 nM | < 31.6 nM | 103% | 104% | 83.4% | 77.6% | 101% | 102% | 79.9% | 70.1% | 109% | 98.5% | 75.4% | 1.5% | 1.33% | 0.61% | 1.13% | viability, T/C [5]: 84.1%; viability, T/C [6]: 66.3%; viability, T/C [11]: 67.5%; viability, T/C [12]: 55.9%; viability, T/C [16]: 66.5%; viability, T/C [17]: 58%; viability, T/C [18]: 38.2%; viability, T/C [21]: 1.91%; viability, T/C [22]: 0.59%; viability, T/C [23]: 0.9%; viability, T/C [24]: 0.33%; viability, T/C [27]: 0.73%; viability, T/C [28]: 0.33%; viability, T/C [29]: 2.15%; viability, T/C [30]: 0.33%
CC(C)n1nc(-c2ccc3oc(N)nc3c2)c2c(N)ncnc21 + CNCc1ccccc1-c1csc(C(C)Nc2nc(C)nc3cc(OC)c(OC)cc23)c1 | 7.42 nM | 9.11 nM | 6.62 nM | < 0.316 nM | < 0.316 nM | 34.1% | 25.2% |  |  | 30.7% | 23.8% |  |  | 30.9% | 21.6% |  | 1.25% | 0.88% | 0.15% | 0.2% | viability, T/C [31]: 91.2%; viability, T/C [32]: 85.3%; viability, T/C [33]: 61.2%; viability, T/C [34]: 45.8%; viability, T/C [35]: 84%; viability, T/C [36]: 83.2%; viability, T/C [37]: 67.1%; viability, T/C [38]: 49.4%; viability, T/C [39]: 92.5%; viability, T/C [40]: 82.7%; viability, T/C [41]: 62.2%; viability, T/C [42]: 42.1%; viability, T/C [43]: 32.1%; viability, T/C [44]: 43.5%; viability, T/C [45]: 0.4%; viability, T/C [46]: 0.49%; viability, T/C [47]: 0.38%; viability, T/C [48]: 0.15%; viability, T/C [49]: 0.47%; viability, T/C [50]: 0.13%
CC1(C)CCC(CN2CCN(c3ccc(C(=O)NS(=O)(=O)c4ccc(NCC5CCOCC5)c([N+](=O)[O-])c4)c(Oc4cnc5[nH]ccc5c4)c3)CC2)=C(c2ccc(Cl)cc2)C1 + CNCc1ccccc1-c1csc(C(C)Nc2nc(C)nc3cc(OC)c(OC)cc23)c1 | 6160 nM | 5210 nM | 4130 nM | < 31.6 nM | < 31.6 nM | 98.8% | 98.8% | 97.2% | 102% | 90.2% | 94.1% | 93.4% | 89.2% | 91.1% | 104% | 103% | 0.76% | 3.72% | 0.3% | 0.27% | viability, T/C [5]: 104%; viability, T/C [6]: 13.4%; viability, T/C [11]: 80.8%; viability, T/C [12]: 9.94%; viability, T/C [16]: 84.5%; viability, T/C [17]: 64.2%; viability, T/C [18]: 5.98%; viability, T/C [21]: 43.5%; viability, T/C [22]: 1.04%; viability, T/C [23]: 1.54%; viability, T/C [24]: 0.73%; viability, T/C [27]: 0.23%; viability, T/C [28]: 0.22%; viability, T/C [29]: 0.67%; viability, T/C [30]: 0.32%
CCN1CCN(Cc2ccc(Nc3ncc(F)c(-c4cc(F)c5nc(C)n(C(C)C)c5c4)n3)nc2)CC1 + CNCc1ccccc1-c1csc(C(C)Nc2nc(C)nc3cc(OC)c(OC)cc23)c1 | > 1000 nM | > 1000 nM | 627 nM | < 3.16 nM | < 3.16 nM | 94.4% | 89.5% | 108% | 94.9% | 89.6% | 107% | 103% | 93.4% | 117% | 95.3% | 119% | 0.25% | 0.25% | 0.29% | 0.24% | viability, T/C [33]: 107%; viability, T/C [34]: 97.5%; viability, T/C [37]: 120%; viability, T/C [38]: 108%; viability, T/C [41]: 116%; viability, T/C [42]: 111%; viability, T/C [16]: 7.8%; viability, T/C [45]: 2.02%; viability, T/C [46]: 0.33%; viability, T/C [21]: 0.17%; viability, T/C [22]: 0.6%; viability, T/C [49]: 0.21%; viability, T/C [50]: 0.26%; viability, T/C [27]: 0.21%; viability, T/C [28]: 0.26%
CCNC(=O)CC1N=C(c2ccc(Cl)cc2)c2cc(OC)ccc2-n2c(C)nnc21 (stereo not given) + CNCc1ccccc1-c1csc(C(C)Nc2nc(C)nc3cc(OC)c(OC)cc23)c1 | 509 nM | 388 nM | 360 nM | < 31.6 nM | < 31.6 nM | 108% | 87.9% | 56.1% | 41.4% | 105% | 93% | 53.3% | 34.3% | 99% | 92.2% | 51.8% | 0.37% | 0.16% | 0.15% | 0.14% | viability, T/C [5]: 32%; viability, T/C [6]: 31.4%; viability, T/C [11]: 28.6%; viability, T/C [12]: 30.6%; viability, T/C [16]: 34.9%; viability, T/C [17]: 32.5%; viability, T/C [18]: 31.3%; viability, T/C [21]: 0.27%; viability, T/C [22]: 0.08%; viability, T/C [23]: 0.08%; viability, T/C [24]: 0.19%; viability, T/C [27]: 0.12%; viability, T/C [28]: 0.8%; viability, T/C [29]: 0.13%; viability, T/C [30]: 0.36%
Cn1ncnc1[C@H]1c2n[nH]c(=O)c3cc(F)cc(c23)N[C@@H]1c1ccc(F)cc1 + CNCc1ccccc1-c1csc(C(C)Nc2nc(C)nc3cc(OC)c(OC)cc23)c1 | > 100 nM | > 100 nM | > 100 nM | < 0.316 nM | < 0.316 nM | 81.7% | 81% |  |  | 81.8% | 80.3% |  |  | 91.5% | 89.6% |  | 0.7% | 0.26% | 0.16% | 1.36% | viability, T/C [31]: 101%; viability, T/C [32]: 94.8%; viability, T/C [33]: 84.5%; viability, T/C [34]: 80.2%; viability, T/C [35]: 104%; viability, T/C [36]: 81.2%; viability, T/C [37]: 82.1%; viability, T/C [38]: 76.7%; viability, T/C [39]: 114%; viability, T/C [40]: 119%; viability, T/C [41]: 112%; viability, T/C [42]: 93.8%; viability, T/C [43]: 2.53%; viability, T/C [44]: 1.22%; viability, T/C [45]: 2.97%; viability, T/C [46]: 1.01%; viability, T/C [47]: 0.78%; viability, T/C [48]: 0.71%; viability, T/C [49]: 0.43%; viability, T/C [50]: 0.21%
